According to patent US20230151025A1, “SUBSTITUTED THIAZOLOPYRIDINES, SALTS THEREOF AND THEIR USE AS HERBICIDALLY ACTIVE SUBSTANCES” (Bayer Aktiengesellschaft, priority 2020, published 2023):

The compounds below were run on Abutilon theophrasti (ABUTH) (assay: Herbicidal pre-emergence action (A), 1280 g/ha). Settings: visual grading after ca. 3 weeks vs untreated controls, 100% = plants have died off, 0% = as control plants.
Type: in vivo
Method in brief: (§1)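 Visual grading of plant damage in percent (0% as untreated control, 100% dead) was done about 3 weeks after treatment. Compounds, as WP or EC in water with 0.5% additive, had been sprayed at 600 l/ha onto the covering soil of freshly sown sandy loam pots.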

| SMILES | ABUTH, herbicidal effect in percent (%) |
| --- | --- |
| Cc1ccccc1-c1ccc2scnc2n1 [Example I-105] | 90 |

Each compound was assayed on Amaranthus retroflexus (AMARE) (assay: Herbicidal pre-emergence action (A), 1280 g/ha). Settings: visual grading after ca. 3 weeks vs untreated controls.
Type: in vivo
Method in brief: as §1

| SMILES | herbicidal effect AMARE [%] |
| --- | --- |
| Cc1ccccc1-c1ccc2scnc2n1 [Example I-105] | 90 |

Each compound was assayed on Digitaria sanguinalis (DIGSA) (assay: Herbicidal pre-emergence action (A), 1280 g/ha). Settings: visual grading after ca. 3 weeks vs untreated controls, 100% = plants have died off, 0% = as control plants.
Type: in vivo
Method in brief: as §1

| SMILES | DIGSA, herbicidal effect in percent (%) |
| --- | --- |
| Cc1ccccc1-c1ccc2scnc2n1 [Example I-105] | 100 |

The compounds below were run on Echinochloa crus-galli (ECHCG) (assay: Herbicidal pre-emergence action (A), 1280 g/ha). Settings: visual grading after ca. 3 weeks vs untreated controls, 100% = plants have died off, 0% = as control plants.
Type: in vivo
Method in brief: as §1

| SMILES | ECHCG, herbicidal effect in percent (%) |
| --- | --- |
| Cc1ccccc1-c1ccc2scnc2n1 [Example I-105] | 100 |

The compounds below were run on Kochia scoparia (KCHSC; Bassia scoparia) (assay: Herbicidal pre-emergence action (A), 1280 g/ha). Settings: visual grading after ca. 3 weeks vs untreated controls.
Type: in vivo
Method in brief: as §1

| SMILES | herbicidal effect KCHSC [%] |
| --- | --- |
| Cc1ccccc1-c1ccc2scnc2n1 [Example I-105] | 100 |

The compounds below were run on Lolium rigidum (LOLRI) (assay: Herbicidal pre-emergence action (A), 1280 g/ha). Settings: visual grading after ca. 3 weeks vs untreated controls, 100% = plants have died off, 0% = as control plants.
Type: in vivo
Method in brief: as §1

| SMILES | LOLRI, herbicidal effect in percent (%) |
| --- | --- |
| Cc1ccccc1-c1ccc2scnc2n1 [Example I-105] | 100 |

The compounds below were run on Matricaria inodora (MATIN) (assay: Herbicidal pre-emergence action (A), 1280 g/ha). Settings: visual grading after ca. 3 weeks vs untreated controls.
Type: in vivo
Method in brief: as §1

| SMILES | herbicidal effect MATIN [%] |
| --- | --- |
| Cc1ccccc1-c1ccc2scnc2n1 [Example I-105] | 100 |

Each compound was assayed on Poa annua (POAAN) (assay: Herbicidal pre-emergence action (A), 1280 g/ha). Settings: visual grading after ca. 3 weeks vs untreated controls, 100% = plants have died off, 0% = as control plants.
Type: in vivo
Method in brief: as §1

| SMILES | POAAN, herbicidal effect in percent (%) |
| --- | --- |
| Cc1ccccc1-c1ccc2scnc2n1 [Example I-105] | 100 |

What follows are compounds tested on Setaria viridis (SETVI) (assay: Herbicidal pre-emergence action (A), 1280 g/ha). Settings: visual grading after ca. 3 weeks vs untreated controls.
Type: in vivo
Method in brief: as §1

| SMILES | herbicidal effect SETVI [%] |
| --- | --- |
| Cc1ccccc1-c1ccc2scnc2n1 [Example I-105] | 100 |

These compounds were tested on Stellaria media (STEME) (assay: Herbicidal pre-emergence action (A), 1280 g/ha). Settings: visual grading after ca. 3 weeks vs untreated controls.
Type: in vivo
Method in brief: as §1

| SMILES | herbicidal effect STEME [%] |
| --- | --- |
| Cc1ccccc1-c1ccc2scnc2n1 [Example I-105] | 100 |

Each compound was assayed on Abutilon theophrasti (ABUTH) (assay: Herbicidal post-emergence action (B), 1280 g/ha). Settings: rated visually after about 3 weeks vs untreated controls.
Type: in vivo
Method in brief: (§2)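 Greenhouse-grown weeds at the one-leaf stage received a foliar spray of the formulated compound (WP or EC, 0.5% additive, 600 L/ha). Damage was scored visually after about 3 weeks on a 0–100% scale against untreated plants.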

| SMILES | herbicidal activity ABUTH [%] |
| --- | --- |
| Cc1ccccc1-c1ccc2scnc2n1 [Example I-105] | 90 |

These compounds were tested on Amaranthus retroflexus (AMARE) (assay: Herbicidal post-emergence action (B), 1280 g/ha). Settings: rated visually after about 3 weeks vs untreated controls.
Type: in vivo
Method in brief: as §2

| SMILES | herbicidal activity AMARE [%] |
| --- | --- |
| Cc1ccccc1-c1ccc2scnc2n1 [Example I-105] | 100 |

These compounds were tested on Echinochloa crus-galli (ECHCG) (assay: Herbicidal post-emergence action (B), 1280 g/ha). Settings: rated visually after about 3 weeks vs untreated controls.
Type: in vivo
Method in brief: as §2

| SMILES | herbicidal activity ECHCG [%] |
| --- | --- |
| Cc1ccccc1-c1ccc2scnc2n1 [Example I-105] | 100 |

What follows are compounds tested on Lolium rigidum (LOLRI) (assay: Herbicidal post-emergence action (B), 1280 g/ha). Settings: one-leaf stage, rated after about 3 weeks vs untreated controls, 100% activity = the plants have died, 0% = like control plants.
Type: in vivo
Method in brief: as §2

| SMILES | LOLRI, activity rated visually (%) |
| --- | --- |
| Cc1ccccc1-c1ccc2scnc2n1 [Example I-105] | 100 |

What follows are compounds tested on Poa annua (POAAN) (assay: Herbicidal post-emergence action (B), 1280 g/ha). Settings: rated visually after about 3 weeks vs untreated controls.
Type: in vivo
Method in brief: as §2

| SMILES | herbicidal activity POAAN [%] |
| --- | --- |
| Cc1ccccc1-c1ccc2scnc2n1 [Example I-105] | 100 |

The compounds below were run on Setaria viridis (SETVI) (assay: Herbicidal post-emergence action (B), 1280 g/ha). Settings: rated visually after about 3 weeks vs untreated controls.
Type: in vivo
Method in brief: as §2

| SMILES | herbicidal activity SETVI [%] |
| --- | --- |
| Cc1ccccc1-c1ccc2scnc2n1 [Example I-105] | 90 |

These compounds were tested on Stellaria media (STEME) (assay: Herbicidal post-emergence action (B), 1280 g/ha). Settings: not given.
Type: in vivo
Method in brief: as §2

| SMILES | herbicidal effect STEME [%] |
| --- | --- |
| Cc1ccccc1-c1ccc2scnc2n1 [Example I-105] | 100 |

These compounds were tested on Echinochloa crus-galli (ECHCG) (assay: Herbicidal pre-emergence action (C), 320 g/ha). Settings: ca. 3 weeks.
Type: in vivo
Text: ABUTH: Abutilon theophrasti AGSTE: Agrostis tenuis ALOMY: Alopecurus myosuroides AMARE Amaranthus retroflexus DIGSA: Digitaria sanguinalis ECHCG: Echinochloa crus-galli KCHSC: Kochia scoparia LOLRI: Lolium rigidum MATIN: Matricaria inodora POAAN: Poa annua POLCO: Polygonum convolvulus SETVI: Setaria viridis STEME: Stellaria media VERPE: Veronica persica VIOTR: Viola tricolor
Seeds of mono- and dicotyledonous weed plants and crop plants were sown, in plastic or organic planting pots, in sandy loam and covered with soil. The compounds according to the invention, formulated in the form of wettable powders (WP) or as emulsifiable concentrates (EC), were applied to the surface of the covering soil as aqueous suspension or emulsion, with the addition of 0.5% of an additive, at an application rate of 600 l of water/ha (converted).
Following treatment, the pots were placed in a greenhouse and kept under optimum growth conditions for the test plants. The visual grading of the damage to the test plants was carried out after ca. 3 weeks in comparison to untreated controls (herbicidal effect in percent (%): 100% effect=plants have died off, 0% effect=as control plants).
Tables C1 to C13 below show the effects of selected compounds of the general formula (I) according to table 1 on various harmful plants and an application rate corresponding to 320 g/ha obtained by the experimental procedure mentioned above.

| SMILES | herbicidal effect ECHCG [%] |
| --- | --- |
| Cc1ccccc1-c1ccc2scnc2n1 [Example I-105] | 90 |
